Test results reported in ChEMBL document CHEMBL4819083, “Synthesis of pyranochalcone derivatives and their inhibitory effect on NF-κB activation” (Bioorg Med Chem Lett, 2021).
Active and inactive are the calls of the source. The calls are words filed in the database; no cut-off is given here.

Assays:
[1] = test system: RAW264.7; experiment: Inhibition of LPS-induced NO expression in mouse RAW264.7 cells at 2 to 20 uM preincubated for 2 hr followed by LPS stimulation and measured after 24 hrs; assay type: functional, cell-based; settings: dose 2-20 µM
[2] = test system: RAW264.7; experiment: Inhibition of LPS-induced IL-1beta mRNA expression in mouse RAW264.7 cells at 2 to 20 uM preincubated for 2 hr followed by LPS stimulation and measured after 6 hrs by qRT-PCR; assay type: functional, cell-based; settings: dose 2-20 µM
[3] = test system: RAW264.7; experiment: Inhibition of LPS-induced pro IL-1beta expression in mouse RAW264.7 cells at 2 to 20 uM preincubated for 2 hr followed by LPS stimulation and measured after 6 hrs by Western blot analysis; assay type: functional, cell-based; settings: dose 2-20 µM
[4] = test system: RAW264.7; experiment: Inhibition of LPS-induced iNOS expression in mouse RAW264.7 cells at 2 to 20 uM preincubated for 2 hr followed by LPS stimulation and measured after 6 hrs by Western blot analysis; assay type: functional, cell-based; settings: dose 2-20 µM
[5] = test system: BMDM; experiment: Inhibition of LPS-induced IL-1beta secretion in mouse BMDM cells at 2 to 20 uM preincubated for 2 hr followed by LPS stimulation and measured after 4 hrs; assay type: functional, cell-based; settings: dose 2-20 µM
[6] = test system: BMDM; experiment: Inhibition of LPS-induced IL-1beta mRNA expression in mouse BMDM cells at 5 to 10 uM preincubated for 2 hr followed by LPS stimulation and measured after 6 hrs by qRT-PCR; assay type: functional, cell-based; settings: dose 5-10 µM
[7] = target: T1, Inhibitor of nuclear factor kappa-B kinase subunit alpha (Mus musculus) (UniProt Q60680); experiment: Inhibition of IKKalpha in mouse RAW264.7 cells assessed as inhibition of LPS-induced IKK-alpha phosphorylation level pre-treated for 2 hrs followed by LPS stimulation and measured after 6 hrs by Western blot analysis; assay type: cell-based
T1 sequence (whole entry): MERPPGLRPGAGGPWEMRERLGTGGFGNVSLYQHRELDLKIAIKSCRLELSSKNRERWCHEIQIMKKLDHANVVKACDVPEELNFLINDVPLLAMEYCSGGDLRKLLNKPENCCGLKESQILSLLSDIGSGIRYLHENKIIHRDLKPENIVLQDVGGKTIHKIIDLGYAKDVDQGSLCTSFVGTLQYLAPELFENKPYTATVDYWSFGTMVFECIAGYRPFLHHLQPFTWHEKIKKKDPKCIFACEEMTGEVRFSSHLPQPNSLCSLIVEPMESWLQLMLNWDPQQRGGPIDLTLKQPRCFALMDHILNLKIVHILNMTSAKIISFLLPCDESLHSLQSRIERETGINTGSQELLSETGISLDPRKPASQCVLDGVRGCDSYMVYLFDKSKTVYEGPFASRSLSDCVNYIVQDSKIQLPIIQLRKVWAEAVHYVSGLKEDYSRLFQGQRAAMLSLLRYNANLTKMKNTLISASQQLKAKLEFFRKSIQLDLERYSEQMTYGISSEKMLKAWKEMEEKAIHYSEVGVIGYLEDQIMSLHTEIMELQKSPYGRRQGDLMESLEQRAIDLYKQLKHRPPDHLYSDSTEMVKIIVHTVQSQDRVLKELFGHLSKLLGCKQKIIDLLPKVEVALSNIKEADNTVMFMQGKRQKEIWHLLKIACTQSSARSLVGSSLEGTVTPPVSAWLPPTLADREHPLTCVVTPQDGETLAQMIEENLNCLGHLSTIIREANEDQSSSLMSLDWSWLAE

[8] = test system: RAW264.7; experiment: Inhibition of NF-kappaB in mouse RAW264.7 cells assessed as reduction in LPS-induced p65 phosphorylation pre-treated for 2 hrs followed by LPS stimulation and measured after 6 hrs by Western blot analysis; assay type: cell-based
[9] = test system: RAW264.7; experiment: Inhibition of MAPK signalling activation in mouse RAW264.7 cells assessed as reduction in LPS-induced p38 phosphorylation pre-treated for 2 hrs followed by LPS stimulation and measured after 6 hrs by Western blot analysis; assay type: cell-based
[10] = test system: RAW264.7; experiment: Cytotoxicity against mouse RAW264.7 cells at > 50 uM; assay type: cell-based

C=CC(=O)Oc1ccc(/C=C/C(=O)c2c(OC)cc3c(c2OC(=O)C=C)CCC(C)(C)O3)cc1
inhibition [1]: Active | inhibition [2]: Active | inhibition [3]: Active | inhibition [4]: Active | inhibition [5]: Active | inhibition [6]: Active | inhibition [7]: Active | inhibition [8]: Active | inhibition [9]: Active | Activity [10]: Non-Toxic
